Source: patent US8192962B2, “Processes for detecting toxic substances” (Daikin Industries, Ltd., priority 2001, dated 2012)

System: Unknown protein yeast genes
Assay: DNA chip mRNA expression in yeast, unknown protein yeast genes (Table 1)
Assay type: cell-based, Saccharomyces cerevisiae S288C
Outline: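 Ratios compare mRNA levels in stressed and control S. cerevisiae. Each toxicant was applied for two hours to log-phase cultures at 25° C. at a sub-lethal, growth-inhibiting level; fluorescent cDNA (Cy3- or Cy5-dUTP) was hybridized to a genome-wide yeast chip for over 12 h at 65° C.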

Oc1cc(Cl)c(Cl)cc1Cl [(6), 2,4,5-trichlorophenol]
The level of expressed mRNA in the presence of chemical substance/The level of expressed mRNA in the absence of chemical substance (yeast gene YAL053W, incubated two hours with chemical substance): 1.1 | The level of expressed mRNA in the presence of chemical substance/The level of expressed mRNA in the absence of chemical substance (yeast gene YBL048W): 2.0 | The level of expressed mRNA in the presence of chemical substance/The level of expressed mRNA in the absence of chemical substance (yeast gene YBL107C): 1.1 | The level of expressed mRNA in the presence of chemical substance/The level of expressed mRNA in the absence of chemical substance (yeast gene YDL072C, incubated two hours with chemical substance): 1.5 | The level of expressed mRNA in the presence of chemical substance/The level of expressed mRNA in the absence of chemical substance (yeast gene YDL146W): 0.7 | The level of expressed mRNA in the presence of chemical substance/The level of expressed mRNA in the absence of chemical substance (yeast gene YDL204W, incubated two hours with chemical substance): 5.6 | The level of expressed mRNA in the presence of chemical substance/The level of expressed mRNA in the absence of chemical substance (yeast gene YDL222C, incubated two hours with chemical substance): 1.4 | The level of expressed mRNA in the presence of chemical substance/The level of expressed mRNA in the absence of chemical substance (yeast gene YDR057W): 0.7 | The level of expressed mRNA in the presence of chemical substance/The level of expressed mRNA in the absence of chemical substance (yeast gene YDR330W, incubated two hours with chemical substance): 2.3 | The level of expressed mRNA in the presence of chemical substance/The level of expressed mRNA in the absence of chemical substance (yeast gene YDR411C, incubated two hours with chemical substance): 0.8 | The level of expressed mRNA in the presence of chemical substance/The level of expressed mRNA in the absence of chemical substance (yeast gene YDR476C): 3.1 | The level of expressed mRNA in the presence of chemical substance/The level of expressed mRNA in the absence of chemical substance (yeast gene YDR511W, incubated two hours with chemical substance): 2.0 | The level of expressed mRNA in the presence of chemical substance/The level of expressed mRNA in the absence of chemical substance (yeast gene YDR545W, incubated two hours with chemical substance): 1.0 | The level of expressed mRNA in the presence of chemical substance/The level of expressed mRNA in the absence of chemical substance (yeast gene YEL001C, incubated two hours with chemical substance): 1.3 | The level of expressed mRNA in the presence of chemical substance/The level of expressed mRNA in the absence of chemical substance (yeast gene YER004W, incubated two hours with chemical substance): 1.2 | The level of expressed mRNA in the presence of chemical substance/The level of expressed mRNA in the absence of chemical substance (yeast gene YER035W, incubated two hours with chemical substance): 0.9 | The level of expressed mRNA in the presence of chemical substance/The level of expressed mRNA in the absence of chemical substance (yeast gene YER079W, incubated two hours with chemical substance): 1.5 | The level of expressed mRNA in the presence of chemical substance/The level of expressed mRNA in the absence of chemical substance (yeast gene YER106W, incubated two hours with chemical substance): 1.1 | The level of expressed mRNA in the presence of chemical substance/The level of expressed mRNA in the absence of chemical substance (yeast gene YER158C, incubated two hours with chemical substance): 0.7 | The level of expressed mRNA in the presence of chemical substance/The level of expressed mRNA in the absence of chemical substance (yeast gene YER163C, incubated two hours with chemical substance): 2.0 | The level of expressed mRNA in the presence of chemical substance/The level of expressed mRNA in the absence of chemical substance (yeast gene YER175C, incubated two hours with chemical substance): 0.8 | The level of expressed mRNA in the presence of chemical substance/The level of expressed mRNA in the absence of chemical substance (yeast gene YFL006W, incubated two hours with chemical substance): 1.2 | The level of expressed mRNA in the presence of chemical substance/The level of expressed mRNA in the absence of chemical substance (yeast gene YFL010C, incubated two hours with chemical substance): 1.9 | The level of expressed mRNA in the presence of chemical substance/The level of expressed mRNA in the absence of chemical substance (yeast gene YFL024C): 2.0 | The level of expressed mRNA in the presence of chemical substance/The level of expressed mRNA in the absence of chemical substance (yeast gene YFL032W, incubated two hours with chemical substance): 0.6 | The level of expressed mRNA in the presence of chemical substance/The level of expressed mRNA in the absence of chemical substance (yeast gene YFL046W): 0.7 | The level of expressed mRNA in the presence of chemical substance/The level of expressed mRNA in the absence of chemical substance (yeast gene YGL037C, incubated two hours with chemical substance): 1.3 | The level of expressed mRNA in the presence of chemical substance/The level of expressed mRNA in the absence of chemical substance (yeast gene YGL047W, incubated two hours with chemical substance): 1.5 | The level of expressed mRNA in the presence of chemical substance/The level of expressed mRNA in the absence of chemical substance (yeast gene YGL053W, incubated two hours with chemical substance): 2.7 | The level of expressed mRNA in the presence of chemical substance/The level of expressed mRNA in the absence of chemical substance (yeast gene YGL059W): 0.7 | The level of expressed mRNA in the presence of chemical substance/The level of expressed mRNA in the absence of chemical substance (yeast gene YGL121C): 9.8 | The level of expressed mRNA in the presence of chemical substance/The level of expressed mRNA in the absence of chemical substance (yeast gene YGL199C, incubated two hours with chemical substance): 0.7 | The level of expressed mRNA in the presence of chemical substance/The level of expressed mRNA in the absence of chemical substance (yeast gene YGR024C): 0.7 | The level of expressed mRNA in the presence of chemical substance/The level of expressed mRNA in the absence of chemical substance (yeast gene YGR101W, incubated two hours with chemical substance): 0.9 | The level of expressed mRNA in the presence of chemical substance/The level of expressed mRNA in the absence of chemical substance (yeast gene YGR110W): 0.9 | The level of expressed mRNA in the presence of chemical substance/The level of expressed mRNA in the absence of chemical substance (yeast gene YGR130C, incubated two hours with chemical substance): 0.9 | The level of expressed mRNA in the presence of chemical substance/The level of expressed mRNA in the absence of chemical substance (yeast gene YGR154C, incubated two hours with chemical substance): 1.4 | The level of expressed mRNA in the presence of chemical substance/The level of expressed mRNA in the absence of chemical substance (yeast gene YGR221C, incubated two hours with chemical substance): 3.0 | The level of expressed mRNA in the presence of chemical substance/The level of expressed mRNA in the absence of chemical substance (yeast gene YHL042W): 0.7 | The level of expressed mRNA in the presence of chemical substance/The level of expressed mRNA in the absence of chemical substance (yeast gene YHR029C): 2.7 | The level of expressed mRNA in the presence of chemical substance/The level of expressed mRNA in the absence of chemical substance (yeast gene YHR138C, incubated two hours with chemical substance): 3.8 | The level of expressed mRNA in the presence of chemical substance/The level of expressed mRNA in the absence of chemical substance (yeast gene YHR199C, incubated two hours with chemical substance): 1.1 | The level of expressed mRNA in the presence of chemical substance/The level of expressed mRNA in the absence of chemical substance (yeast gene YIL023C, incubated two hours with chemical substance): 0.9 | The level of expressed mRNA in the presence of chemical substance/The level of expressed mRNA in the absence of chemical substance (yeast gene YIL041W, incubated two hours with chemical substance): 1.0 | The level of expressed mRNA in the presence of chemical substance/The level of expressed mRNA in the absence of chemical substance (yeast gene YIL087C, incubated two hours with chemical substance): 4.1 | The level of expressed mRNA in the presence of chemical substance/The level of expressed mRNA in the absence of chemical substance (yeast gene YJL057C, incubated two hours with chemical substance): 1.4 | The level of expressed mRNA in the presence of chemical substance/The level of expressed mRNA in the absence of chemical substance (yeast gene YJL066C, incubated two hours with chemical substance): 1.4 | The level of expressed mRNA in the presence of chemical substance/The level of expressed mRNA in the absence of chemical substance (yeast gene YJL082W, incubated two hours with chemical substance): 0.2 | The level of expressed mRNA in the presence of chemical substance/The level of expressed mRNA in the absence of chemical substance (yeast gene YJL144W): 1.7 | The level of expressed mRNA in the presence of chemical substance/The level of expressed mRNA in the absence of chemical substance (yeast gene YJL151C, incubated two hours with chemical substance): 2.2 | The level of expressed mRNA in the presence of chemical substance/The level of expressed mRNA in the absence of chemical substance (yeast gene YJL152W, incubated two hours with chemical substance): 1.5 | The level of expressed mRNA in the presence of chemical substance/The level of expressed mRNA in the absence of chemical substance (yeast gene YJL161W, incubated two hours with chemical substance): 8.0 | The level of expressed mRNA in the presence of chemical substance/The level of expressed mRNA in the absence of chemical substance (yeast gene YJL163C): 2.8 | The level of expressed mRNA in the presence of chemical substance/The level of expressed mRNA in the absence of chemical substance (yeast gene YJL171C, incubated two hours with chemical substance): 2.7 | The level of expressed mRNA in the presence of chemical substance/The level of expressed mRNA in the absence of chemical substance (yeast gene YJR008W, incubated two hours with chemical substance): 2.2 | The level of expressed mRNA in the presence of chemical substance/The level of expressed mRNA in the absence of chemical substance (yeast gene YJR054W, incubated two hours with chemical substance): 0.7 | The level of expressed mRNA in the presence of chemical substance/The level of expressed mRNA in the absence of chemical substance (yeast gene YKL071W): 18.6
